The values that follow come from US7091311B2, “Peptides and compounds that bind to a receptor” (SmithKline Beecham Corporation, priority 1996, dated 2006).

One assay addresses T1, TPO receptor (Homo sapiens, UniProt P40238).
T1 sequence (P40238 26-635): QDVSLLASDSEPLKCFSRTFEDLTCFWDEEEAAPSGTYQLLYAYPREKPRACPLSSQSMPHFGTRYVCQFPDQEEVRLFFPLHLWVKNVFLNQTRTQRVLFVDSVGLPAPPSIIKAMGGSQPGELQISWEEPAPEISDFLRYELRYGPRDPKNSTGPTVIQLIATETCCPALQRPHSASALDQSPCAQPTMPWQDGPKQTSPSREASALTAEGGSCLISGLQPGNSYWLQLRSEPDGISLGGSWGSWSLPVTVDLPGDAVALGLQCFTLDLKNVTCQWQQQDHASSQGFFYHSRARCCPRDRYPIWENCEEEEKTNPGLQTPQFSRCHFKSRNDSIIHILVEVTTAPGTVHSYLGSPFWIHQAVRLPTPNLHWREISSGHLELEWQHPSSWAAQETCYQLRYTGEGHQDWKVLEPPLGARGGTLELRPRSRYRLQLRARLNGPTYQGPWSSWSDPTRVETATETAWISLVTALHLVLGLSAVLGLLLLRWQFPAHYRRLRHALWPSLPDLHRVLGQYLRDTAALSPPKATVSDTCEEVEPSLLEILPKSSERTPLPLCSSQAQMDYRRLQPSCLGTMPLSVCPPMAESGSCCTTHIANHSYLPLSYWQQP
Briefly: microphysiometer assay: rate of acidification of the extracellular medium in response to TPO receptor stimulation. Type of assay: cell-based. To be noted: Table 9; read-out: EC50 (nM) Microphys.

The next assay has as its target T2, human TPO-R (Homo sapiens, UniProt P40238).
T2 construct: transfected with full length human TPO-R; expressed in transfected cells; host or cells: murine Ba/F3 cells
T2 sequence (P40238 26-635): T1 sequence (P40238 26-635)
Briefly: thrombopoietin dependent cell proliferation assay, TPO-R transfected Ba/F3 cells (MTT). Type of assay: cell-based.

A further assay concerns the target T3, TPO-R (Homo sapiens, UniProt P40238).
T3 construct: made in house
T3 sequence (P40238 26-491 limits assumed): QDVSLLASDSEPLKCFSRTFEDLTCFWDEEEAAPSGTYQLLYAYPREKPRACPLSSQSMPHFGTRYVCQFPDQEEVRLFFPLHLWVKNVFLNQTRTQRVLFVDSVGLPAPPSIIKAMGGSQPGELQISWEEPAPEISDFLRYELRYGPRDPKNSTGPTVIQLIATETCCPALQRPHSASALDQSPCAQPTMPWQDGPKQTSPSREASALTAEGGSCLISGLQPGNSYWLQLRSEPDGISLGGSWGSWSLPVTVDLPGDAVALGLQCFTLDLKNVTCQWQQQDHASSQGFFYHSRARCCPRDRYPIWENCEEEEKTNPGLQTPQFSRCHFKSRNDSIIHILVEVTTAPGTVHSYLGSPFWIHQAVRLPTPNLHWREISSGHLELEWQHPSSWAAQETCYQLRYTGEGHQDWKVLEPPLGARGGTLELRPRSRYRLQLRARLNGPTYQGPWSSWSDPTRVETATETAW
Briefly: competition binding assay: MBP-TPO156 binding to immobilized TPO-R (ELISA). The procedure: A variety of methods can be used to evaluate IC50 values. For example, an equilibrium binding ELISA assay, using either MBP-TPO or lacI-peptide tracer, was used to determine whether the peptides inhibit the binding of TPO to the extracellular domain of the TPO receptor. Typically, the IC50 value were determined using the free peptide. The IC50value can be determined using the free peptide, which optionally can be C-terminally amidated, or can be prepared as an ester or other carboxy amide.
Binding affinities of chemically synthesized peptides for TPO-R were measured in a competition binding assay. The wells of a microtiter plate were coated with 1 mg streptavidin, blocked with PBS/1% BSA, followed by 50 ng of biotinylated anti-receptor immobilizing antibody (Ab179). The wells were then treated with a 1:10 dilution of soluble TPO-R harvest. Various concentrations of peptide or peptide mimetic were mixed with a constant amount of a truncated form of TPO consisting of residues 1–156 fused to the C-terminus of maltose binding protein (MBP-TPO156). The peptide MBP-TPO156 mixtures were added to the TPO-R coated wells, incubated for 2 hours at 4° C. and then washed with PBS. The amount of MBP-TPO156 that was bound at equilibrium was measured by adding a rabbit anti-sera directed against MBP, followed by alkaline phosphatase conjugated goat anti-rabbit IgG. The amount of alkaline phosphatase in each well was then determined using standard methods.
The assay is conducted over a range of peptide concentrations and the results are graphed such that the y axis represents the amount of bound MBP-TPO156 and the x axis represents the concentration of peptide or peptide mimetic.
In general terms: An ELISA detects its analyte on a solid surface through an enzyme-linked reagent.

Assay [1] relates to marrow cells. Kind of assay: mouse marrow cells in liquid culture, AChE-staining megakaryocytes. Type of assay: cell-based, Balb/C mice. The protocol: To assess the feasibility of mice as a convenient test species, several in vitro experiments, designed to measure the activity of the test compounds on the mouse receptor, have been done. First, marrow cells, harvested from the femurs of 8 to 9 week one Balb/C mice, were incubated for 7 days in liquid culture with either rhuTPO or various concentrations of the test peptides. At the end of the incubation period, the cultures were concentrated by Cytospin, stained for acetylcholinesterase (AChE, a diagnostic of mouse megakaryocytes), and counted by microscopic analysis. One (1) nM rhuTPO gave rise to the outgrowth of very large (>40 um) non-adherent cells that stain for AChE. These cells appear to be mature megakaryocytes. From an initial seeding of 10^6 total marrow cells/ml (in 50 ml cultures) an estimated 1 to 2×10^6 megakaryocytes developed. This response to TPO was designated as “maximal”. Control cultures containing no added growth factors produced very few AChE-positive cells. […] This finding was the first evidence that this peptide family is active on the murine receptor. In a second experiment, marrow cells were harvested and cultured in semi-solid medium (methylcellulose) containing either no factors, 1 nM rhuTPO, or 10 uM Peptide A. After 7 days in culture, colonies of large cell (presumed to be megakaryocytes) were counted and grouped into small colonies (3–5 cells) or large colonies (greater than 6 cells). TPO and the test peptides both produced substantially more colonies of both sized than did the negative control cultures.

In assay [2] the test system is marrow cells. Kind of assay: marrow cells in semi-solid medium (methylcellulose), colonies of large cells. To be noted: 1 nM TPO; 7 days in methylcellulose; replicate cultures. Type of assay: cell-based, Balb/C mice. The procedure:
To assess the feasibility of mice as a convenient test species, several in vitro experiments, designed to measure the activity of the test compounds on the mouse receptor, have been done. First, marrow cells, harvested from the femurs of 8 to 9 week one Balb/C mice, were incubated for 7 days in liquid culture with either rhuTPO or various concentrations of the test peptides. At the end of the incubation period, the cultures were concentrated by Cytospin, stained for acetylcholinesterase (AChE, a diagnostic of mouse megakaryocytes), and counted by microscopic analysis. One (1) nM rhuTPO gave rise to the outgrowth of very large (>40 um) non-adherent cells that stain for AChE. These cells appear to be mature megakaryocytes. From an initial seeding of 10^6 total marrow cells/ml (in 50 ml cultures) an estimated 1 to 2×10^6 megakaryocytes developed. This response to TPO was designated as “maximal”. Control cultures containing no added growth factors produced very few AChE-positive cells. […] In a second experiment, marrow cells were harvested and cultured in semi-solid medium (methylcellulose) containing either no factors, 1 nM rhuTPO, or 10 uM Peptide A. After 7 days in culture, colonies of large cell (presumed to be megakaryocytes) were counted and grouped into small colonies (3–5 cells) or large colonies (greater than 6 cells). […]

[3] abbreviates: Table 9, read-out: EC50 (nM) Prolif.
Setting [4] is: Table 3, free peptide, read-out: Affinity (IC50).

Where “and” joins values, the source holds several entries; their conditions need not be identical. Identical values can stand only once. Like-named read-outs stand apart in the source and are kept apart here. Where a SMILES comes first, the peptide text is derived from it. Where no end group is shown, it is not given here.

Method for TPO receptor: In this example cyclized compounds were subjected to three assays. […] Finally, a microphysiometer (Molecular Devices Corp.) assay was performed. […] The ranges for EC50 are symbolically indicated as for IC50 described above.
Method for human TPO-R: Bioactivity of the peptides can be measured using a thrombopoietin dependent cell proliferation assay. Murine IL-3 dependent Ba/F3 cells were transfected with full length human TPO-R. In the absence of IL-3 (WEHI-3 conditioned media), these cells are dependent on TPO for proliferation.
The cells were grown in complete RPMI-10 media, containing 10% WEHI-3 conditioned media, then washed twice in PBS, resuspended in media which lacked WEHI-3 conditioned media, and added to wells containing dilutions of peptide or TPO at 2×10^4 cells/well. The cells were incubated for 48 hours at 37° C. in a humidified 5% Co2 atmosphere and metabolic activity was assayed by the reduction of MTT to formazan, with absorbance at 570 nm measured on an ELISA plate reader.

As usually defined, the EC50 is the concentration needed to bring the measured effect to its halfway point. In general, IC50 refers to the concentration needed to halve the response being measured. Turning to `CC[C@H](C)[C@H](N)C(=O)N[C@@H](CCC(=O)O)C(=O)NCC(=O)N1CCC[C@H]1C(=O)N[C@H](C(=O)N[C@@H](CC(C)C)C(=O)N[C@@H](CCCNC(=N)N)C(=O)N[C@@H](CCC(N)=O)C(=O)N[C@@H](Cc1c[nH]c2ccccc12)C(=O)N[C@@H](CC(C)C)C(=O)N[C@@H](C)C(=O)N[C@@H](C)C(=O)N[C@@H](CCCNC(=N)N)C(=O)N[C@@H](C)C(=O)NCCCC[C@H](NC(=O)CCNC(=O)[C@H](C)NC(=O)[C@H](CCCNC(=N)N)NC(=O)[C@H](C)NC(=O)[C@H](C)NC(=O)[C@H](CC(C)C)NC(=O)[C@H](Cc1c[nH]c2ccccc12)NC(=O)[C@H](CCC(N)=O)NC(=O)[C@H](CCCNC(=N)N)NC(=O)[C@H](CC(C)C)NC(=O)[C@@H](NC(=O)[C@@H]1CCCN1C(=O)CNC(=O)[C@H](CCC(=O)O)NC(=O)[C@@H](N)[C@@H](C)CC)[C@@H](C)O)C(N)=O)[C@@H](C)O`, the EC50 at TPO receptor was no more than 500 nM; at human TPO-R (setting [3]), no more than 500 nM; on human TPO-R (Table 10, value outside parentheses, read-out: EC50 (nM) Cell Prolif.) it was no more than 500 nM. The IC50 at TPO-R (Table 7, dimer compounds, read-out: IC50) is no more than 0.5 µM; at TPO-R (Table 9, read-out: IC50) it was no more than 0.5 µM. Turning to `CC[C@H](C)[C@@H]1NC(=O)[C@@H](N)CSSC[C@@H](C(N)=O)NC(=O)[C@H](C)NC(=O)[C@H](CCCNC(=N)N)NC(=O)[C@H](C)NC(=O)[C@H](C)NC(=O)[C@H](CC(C)C)NC(=O)[C@H](Cc2c[nH]c3ccccc23)NC(=O)[C@H](CCC(N)=O)NC(=O)[C@H](CCCNC(=N)N)NC(=O)[C@H](CC(C)C)NC(=O)[C@H]([C@@H](C)O)NC(=O)[C@@H]2CCCN2C(=O)CNC(=O)[C@H](CCC(=O)O)NC1=O` (HELM PEPTIDE1{C.I.E.G.P.T.L.R.Q.W.L.A.A.R.A.C.[am]}$PEPTIDE1,PEPTIDE1,1:R3-16:R3$$$V2.0), the EC50 at human TPO-R (setting [3]) is no more than 500 nM. On to `CC[C@H](C)[C@@H]1NC(=O)[C@H](Cc2c[nH]c3ccccc23)NC(=O)[C@H](CCC(=O)O)NC(=O)[C@H](CCCNC(=N)N)NC(=O)[C@H](CC(C)C)NC(=O)[C@H]([C@@H](C)O)NC(=O)[C@@H]2CCCN2C(=O)CNC(=O)[C@H](CC(=O)O)NC(=O)[C@H](C)NC(=O)CSC[C@@H](C(N)=O)NC(=O)[C@H](C(c2ccccc2)c2ccccc2)NC(=O)[C@H](CO)NC1=O` [F - DiPh-Ala] (HELM PEPTIDE1{[O=C(C[*:3])[*:2]].A.D.G.P.T.L.R.E.W.I.S.[O=C([C@@H](N[*:1])C(c1ccccc1)c1ccccc1)[*:2]].C.[am]}$PEPTIDE1,PEPTIDE1,1:R3-14:R3$$$V2.0; C-terminus assumed), for which, at TPO-R (Table 6, read-out: IC50), the IC50 is no more than 0.5 µM. Same read-out and setting: under `CC[C@@H]1NC(=O)[C@H]([C@@H](C)CC)NC(=O)[C@H](Cc2c[nH]c3ccccc23)NC(=O)[C@H](CCC(=O)O)NC(=O)[C@H](CCCNC(=N)N)NC(=O)[C@H](CC(C)C)NC(=O)[C@H]([C@@H](C)O)NC(=O)[C@@H]2CCCN2C(=O)CNC(=O)[C@H](CC(=O)O)NC(=O)[C@H](C)NC(=O)CSC[C@@H](C(N)=O)NC(=O)[C@H](C(c2ccccc2)c2ccccc2)NC1=O` [S,F - Abu, DiPh-Ala] (HELM PEPTIDE1{[O=C(C[*:3])[*:2]].A.D.G.P.T.L.R.E.W.I.[Abu].[O=C([C@@H](N[*:1])C(c1ccccc1)c1ccccc1)[*:2]].C.[am]}$PEPTIDE1,PEPTIDE1,1:R3-14:R3$$$V2.0; C-terminus assumed) stands no more than 0.5 µM. For “AF 12885 with streptavidin (SA): complexed biotinylated peptide: G G C A D G P T L R E W I S F C G G K (Biotin) preincubated with streptavidin, 4:1 molar ratio”, the “potency of pre-formed streptavidin complex relative to the free peptide” value with human TPO-R (peptide preincubated with streptavidin at 4:1 molar ratio, FIG. 2) was “approximately 10 times”.

Regarding “GNADGPTLRQWLEGRRPKN [G N A D G P T L R Q W L E G R R P K N]”, the half-inhibitory concentration (IC50) at TPO-R (setting [4]) was no more than 0.5 µM. For GPTLRQWL [G P T L R Q W L], the IC50 at TPO-R (setting [4]) was greater than 200 µM. Regarding H-IEGPTLRQWLAARA-NH2, at human TPO-R (setting [3]), the EC50 is no more than 500 nM. Also, on TPO-R (Table 9, read-out: IC50), the IC50 was no more than 0.5 µM.

As to “LAIEGPTLRQWLHGNGRDT [L A I E G P T L R Q W L H G N G R D T]”, on TPO-R (setting [4]), the IC50 was no more than 0.5 µM. Turning to “S.A. alone: streptavidin alone [reference compound]”, in the assay on marrow cells [1] (concentration tested 1000 nM (putative 1:4 complex), 7 days, maximal = compared to recombinant human TPO, 25–30% ACE staining cells), the “Response (AChE-staining megakaryocytes)” value is given as “none”.

“SIEGPTLREWLTSRTPHS [S I E G P T L R E W L T S R T P H S]”: the IC50 on TPO-R (setting [4]) is no more than 0.5 µM. In the case of “TIKGPTLRQWLKSREHTS [T I K G P T L R Q W L K S R E H T S]”, on TPO-R (setting [4]), the IC50 is no more than 0.5 µM. Turning to TPO (R & D): recombinant human TPO, in the assay on marrow cells [1] (1 nM rhuTPO, initial seeding 10^6 total marrow cells/ml in 50 ml cultures, 7 days), the “megakaryocytes developed (estimated)” value is recorded as 1 to 2×10^6. The “Response (AChE-staining megakaryocytes)” value in the assay on marrow cells [1] (concentration tested 1 nM, 7 days liquid culture) is on record as ““maximal””. Besides, in the assay with marrow cells [2], the “large colonies, 6–12 large cells” value was 6 and 1 and 8 and 3; the “small colonies, 3–5 large cells” value was 15 and 12 and 16 and 13.
